In series [1] the target is Paired box protein Pax-8 (Homo sapiens, UniProt Q06710). Nature of the series: inhibitors of PAX8-driven TPO luciferase reporter, dose response, RMG-I cells, cherry-pick (AID 687027).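 Further: luciferase reporter driven by Pax8 target thyroperoxidase promoter measured by SteadyGlo luminescence.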 Format: functional, cell-based. For orientation: A reporter such as luciferase makes a cellular process visible.
Series [2] in a line: cytotoxicity toward NIH3T3 fibroblasts, dose response, counter-screen, cell-based, ATP luminescence, mouse fibroblasts (AID 2010).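 Further: cells exposed to compound for about 90 hours before reading.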 The series is classed as functional. On the technique in general: A counterscreen serves to expose hits that act by an unwanted route or on another target.
Series [3] is described as follows: inhibitors of intracellular T. cruzi replication, confirmation, NIH3T3 host cells, beta-gal luminescence (AID 2044).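 Further: intracellular parasites grown in NIH/3T3 mouse fibroblasts as host cells; luminescent beta-galactosidase reporter signal from transgenic T. cruzi replicating inside host cells; inhibitors lower the luminescence signal.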 Format: functional, cell-based.
The nature of series [4]: Luminescence Cell-Based Dose Retest to Confirm Inhibitors of Cancer Stem Cells. [Related pubchem assays (depositor defined):AID2717, AID2721]. The conditions noted are these: Homo sapiens. Format: functional.
In series [5] the target is T1, Cytochrome P450 1A2 (Homo sapiens, UniProt P05177).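 Further: PubChem cytochrome P450 panel assay, CYP1A2 panel member.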
T1 sequence (P05177 whole entry): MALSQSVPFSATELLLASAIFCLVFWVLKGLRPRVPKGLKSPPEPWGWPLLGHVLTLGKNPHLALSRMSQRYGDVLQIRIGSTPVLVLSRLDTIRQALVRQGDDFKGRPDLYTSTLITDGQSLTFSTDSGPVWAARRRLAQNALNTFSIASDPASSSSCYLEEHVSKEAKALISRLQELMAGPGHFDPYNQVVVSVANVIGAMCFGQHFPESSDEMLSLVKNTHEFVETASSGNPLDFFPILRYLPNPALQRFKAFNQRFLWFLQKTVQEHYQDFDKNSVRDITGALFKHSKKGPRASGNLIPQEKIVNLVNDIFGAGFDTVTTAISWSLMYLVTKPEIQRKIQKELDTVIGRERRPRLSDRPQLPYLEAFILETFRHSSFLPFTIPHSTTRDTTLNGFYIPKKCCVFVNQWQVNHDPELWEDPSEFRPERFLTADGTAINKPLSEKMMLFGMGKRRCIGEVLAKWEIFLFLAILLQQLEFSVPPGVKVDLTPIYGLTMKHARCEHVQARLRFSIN

Series [6] concerns INS1. Nature of the series: beta cell apoptosis inhibitors, cytokine rescue, dose response, luminescence, retest (AID 449756).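 Further: cell death triggered by IL-1 beta plus TNF-alpha plus IFN-gamma mixture; protective hits raise ATP signal compared with cytokine alone wells.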 The series is classed as functional, cell-based. The conditions noted are these: Rattus norvegicus.
Series [7] can be described thus: Luminescence Cell-Based Dose Response HTS to Identify Inhibitors of 5'UTR Stem-Loop Driven Prion Protein mRNA Translation in H4 Neuroglioblastoma Cells. [Related pubchem assays: 1827 (Project Summary), 1813 (Primary HTS)]. The series is classed as functional.
A short description of series [8]: inhibitors of firefly luciferase expression or activity, dose response, H4 neuroglioma cells, luminescence (AID 1990). The series is classed as functional, cell-based.
Series [9] in a line: inhibitors of SNCA 5'UTR-driven reporter translation, confirmation, H4 neuroglioma cells, luminescence (AID 1988). The series is classed as functional, cell-based.
Series [10] is described as follows: HEp-2 cell cytotoxicity, dose response, cytotoxicity control for RSV inhibitor project, HTS (AID 2410). Conditions: human respiratory syncytial virus. Format: functional.
In series [11] the target is T2, Streptokinase A (Streptococcus pyogenes serotype M1, UniProt P10520).
T2 sequence (P10520 whole entry): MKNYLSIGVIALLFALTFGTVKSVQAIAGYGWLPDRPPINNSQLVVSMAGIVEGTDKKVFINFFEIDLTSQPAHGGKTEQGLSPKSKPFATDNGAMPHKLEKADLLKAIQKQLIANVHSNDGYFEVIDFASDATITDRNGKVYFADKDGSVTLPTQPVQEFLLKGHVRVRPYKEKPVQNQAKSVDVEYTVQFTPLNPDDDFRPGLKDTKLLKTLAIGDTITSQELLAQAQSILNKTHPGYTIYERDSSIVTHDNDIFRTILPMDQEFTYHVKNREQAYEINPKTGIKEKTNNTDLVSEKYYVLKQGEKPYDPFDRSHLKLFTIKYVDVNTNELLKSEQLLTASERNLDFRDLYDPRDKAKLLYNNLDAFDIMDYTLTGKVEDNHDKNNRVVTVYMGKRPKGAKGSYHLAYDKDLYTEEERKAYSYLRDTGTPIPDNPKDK
Nature of the series: S. pyogenes streptokinase expression inhibitors, potency, dose response, plasminogen activation absorbance, OD405 (AID 1914).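 Further: secreted streptokinase activity via plasminogen activation per viability signal from cell pellet.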 The series is classed as functional, Streptococcus pyogenes M1 GAS.

The subject of series [12] is Streptococcus. Put plainly: Group A Streptococcus viability loss, dose response, counter-screen for streptokinase expression inhibitor project, luminescence, BacTiterGlo (AID 1915).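 Further: potency for reduction of bacterial viability or growth.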 Format: functional, organism-based.
Series [13] relates to Streptococcus sp. 'group A'. Put plainly: growth inhibition of control SK(-) GAS strain, dose response, counter-screen for streptokinase expression inhibitor project, luminescence, kanamycin, BacTiterGlo, confirmation (AID 1900). The series is classed as functional, organism-based.
Series [14] addresses Cytochrome P450 2C9 (Homo sapiens, UniProt P11712).
Series [15] deals with Cytochrome P450 2D6 (Homo sapiens, UniProt P10635).
Series [16] addresses Cytochrome P450 2C19 (Homo sapiens, UniProt P33261). Put plainly: Cytochrome panel assay with activity outcomes. Panel member name: p450-cyp2c19 Compounds with AC50 equal or less than 10 uM are considered active. The series is classed as functional.
Series [17] deals with T3, Corticotropin-releasing factor receptor 2/Corticotropin-releasing factor-binding protein (Homo sapiens, UniProt P24387+Q13324).
T3 sequence (Q13324 whole entry): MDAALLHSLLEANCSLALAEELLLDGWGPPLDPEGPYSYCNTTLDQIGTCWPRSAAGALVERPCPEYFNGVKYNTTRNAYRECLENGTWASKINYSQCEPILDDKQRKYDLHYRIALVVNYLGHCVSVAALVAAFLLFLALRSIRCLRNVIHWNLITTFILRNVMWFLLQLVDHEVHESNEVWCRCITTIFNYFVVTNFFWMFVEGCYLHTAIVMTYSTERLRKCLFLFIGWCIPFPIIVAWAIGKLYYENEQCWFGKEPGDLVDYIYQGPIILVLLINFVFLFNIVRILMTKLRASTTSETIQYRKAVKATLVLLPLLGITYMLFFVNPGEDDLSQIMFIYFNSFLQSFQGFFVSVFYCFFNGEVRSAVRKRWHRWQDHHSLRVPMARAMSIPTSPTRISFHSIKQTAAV
T3 sequence (P24387 whole entry): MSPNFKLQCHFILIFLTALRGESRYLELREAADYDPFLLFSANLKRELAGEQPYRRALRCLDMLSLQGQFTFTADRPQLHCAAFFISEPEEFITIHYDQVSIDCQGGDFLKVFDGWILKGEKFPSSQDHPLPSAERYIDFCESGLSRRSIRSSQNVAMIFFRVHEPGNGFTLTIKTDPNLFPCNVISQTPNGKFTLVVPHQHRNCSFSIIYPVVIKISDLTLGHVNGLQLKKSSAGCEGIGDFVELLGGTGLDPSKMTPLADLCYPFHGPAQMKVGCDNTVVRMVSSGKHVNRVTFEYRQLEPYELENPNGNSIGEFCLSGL
Put plainly: activators of CRF receptor 2 with binding protein – uHTS hits, confirmation (AID 602473). The series is classed as functional. Conditions: read-out: EC50_Mean.

Active and inactive are the calls of the source.

Chain of Cytochrome P450 2D6 (P10635 whole entry): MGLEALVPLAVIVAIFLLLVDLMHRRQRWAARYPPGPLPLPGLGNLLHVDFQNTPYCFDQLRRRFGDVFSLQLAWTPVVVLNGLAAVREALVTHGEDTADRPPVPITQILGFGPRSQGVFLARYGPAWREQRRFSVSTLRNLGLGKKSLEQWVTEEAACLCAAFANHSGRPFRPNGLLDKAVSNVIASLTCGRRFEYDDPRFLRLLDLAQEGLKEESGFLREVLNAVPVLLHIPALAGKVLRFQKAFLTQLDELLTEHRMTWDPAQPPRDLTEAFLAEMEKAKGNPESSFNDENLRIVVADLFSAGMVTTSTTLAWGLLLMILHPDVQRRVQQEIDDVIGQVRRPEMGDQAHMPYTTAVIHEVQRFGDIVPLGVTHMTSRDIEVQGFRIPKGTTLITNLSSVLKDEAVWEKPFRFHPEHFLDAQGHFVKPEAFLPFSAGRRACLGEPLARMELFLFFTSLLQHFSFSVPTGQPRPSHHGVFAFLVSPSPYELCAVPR
Chain of Cytochrome P450 2C19 (P33261 whole entry): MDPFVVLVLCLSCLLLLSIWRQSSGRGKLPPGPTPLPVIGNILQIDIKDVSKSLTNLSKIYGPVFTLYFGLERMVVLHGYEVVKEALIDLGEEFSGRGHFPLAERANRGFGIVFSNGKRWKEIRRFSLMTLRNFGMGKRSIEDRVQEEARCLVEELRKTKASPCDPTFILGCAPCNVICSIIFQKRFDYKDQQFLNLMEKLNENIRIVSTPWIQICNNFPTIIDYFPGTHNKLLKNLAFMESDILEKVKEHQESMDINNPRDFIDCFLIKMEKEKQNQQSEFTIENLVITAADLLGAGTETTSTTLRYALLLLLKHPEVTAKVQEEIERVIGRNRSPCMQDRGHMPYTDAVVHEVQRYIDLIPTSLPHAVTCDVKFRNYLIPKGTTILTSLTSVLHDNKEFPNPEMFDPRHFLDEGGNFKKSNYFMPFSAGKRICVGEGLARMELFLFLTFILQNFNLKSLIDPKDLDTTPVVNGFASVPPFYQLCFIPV
Chain of Paired box protein Pax-8 (Q06710 whole entry): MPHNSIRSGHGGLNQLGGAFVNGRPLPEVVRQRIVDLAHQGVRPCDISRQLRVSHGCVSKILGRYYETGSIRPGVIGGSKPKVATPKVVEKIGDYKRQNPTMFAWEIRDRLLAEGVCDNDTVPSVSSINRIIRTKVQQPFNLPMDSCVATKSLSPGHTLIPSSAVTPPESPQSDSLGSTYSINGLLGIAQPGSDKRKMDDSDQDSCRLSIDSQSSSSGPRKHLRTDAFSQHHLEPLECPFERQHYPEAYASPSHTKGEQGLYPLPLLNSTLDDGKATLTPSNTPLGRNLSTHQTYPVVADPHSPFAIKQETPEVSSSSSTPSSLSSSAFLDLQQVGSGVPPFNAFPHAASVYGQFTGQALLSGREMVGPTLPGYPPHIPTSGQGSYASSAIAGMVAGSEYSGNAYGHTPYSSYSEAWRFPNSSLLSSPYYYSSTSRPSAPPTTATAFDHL
Chain of Cytochrome P450 2C9 (P11712 whole entry): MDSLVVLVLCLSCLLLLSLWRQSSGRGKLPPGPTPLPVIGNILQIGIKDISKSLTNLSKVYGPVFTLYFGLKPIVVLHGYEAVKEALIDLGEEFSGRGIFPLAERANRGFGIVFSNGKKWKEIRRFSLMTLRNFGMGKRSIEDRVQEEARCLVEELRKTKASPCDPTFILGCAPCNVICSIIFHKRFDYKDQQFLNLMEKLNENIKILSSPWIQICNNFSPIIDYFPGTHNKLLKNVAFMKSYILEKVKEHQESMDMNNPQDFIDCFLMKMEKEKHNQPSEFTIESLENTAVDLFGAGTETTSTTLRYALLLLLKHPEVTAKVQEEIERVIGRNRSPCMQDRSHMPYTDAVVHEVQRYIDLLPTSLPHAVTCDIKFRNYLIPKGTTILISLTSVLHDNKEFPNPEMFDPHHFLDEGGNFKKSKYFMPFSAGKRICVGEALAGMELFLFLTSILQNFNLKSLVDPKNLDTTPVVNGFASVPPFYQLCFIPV

One may read the AC50 as the midpoint of the concentration-response curve, whichever way the signal moves. In the case of `Cc1c(C(=O)c2cccc3ccccc23)c2cccc3c2n1[C@H](CN1CCOCC1)CO3`, the results for the AC50 in [1] and in series [4] were 8.77 µM (active) and 3.47 µM (active), respectively. Also, the EC50 in [2] was 55.9 µM (active); in series [3], 0.887 µM (active).

For `O=C(COC(=O)/C(=C/c1cccs1)c1cccs1)NC(c1ccccc1)c1ccccc1`, in series [1], the AC50 was 8.36 µM (active).

Regarding `COc1ccc(C2=NOC(C(=O)NCCN3CCOCC3)C2)cc1` (stereo not given), the AC50 in series [5] is 31.6 µM (inconclusive).

On to `COc1ccc(N(C)S(=O)(=O)c2cccc(C(=O)Nc3nc(C)c(C(C)=O)s3)c2)cc1`, for which, in [6], the AC50 is 28.3 µM (active).

Take `COc1ccc(-c2csc(NC(=S)NC(=O)/C=C/c3ccco3)n2)cc1Br`: the EC50 in series [7] is > 120 µM (not active); in series [8], > 120 µM (not active); in series [9], 9.94 µM (inconclusive). Also, the AC50 in series [4] is 0.47 µM (active).

By CC50 is commonly meant the concentration that lowers cell viability or growth by half. Take `Cc1nn(C)c(Cl)c1CN1CCCC(CO)(Cc2ccccc2)C1` (stereo not given): the CC50 in series [10] was > 50 µM (active).

`O=C(C(Sc1ccccc1)c1ccccc1)N1CCN(c2ccccc2F)CC1` (stereo not given): the AC50 in [6] was > 120 µM (inactive).

For `Cc1cccc2sc(N3CCN(C(=O)C4COc5ccccc5O4)CC3)nc12` (stereo not given), the CC50 in [10] is 25.8 µM (active).

As to `COc1cccc(Cn2nnc3c(O)nc(C4CCCN(C(=O)c5ccccc5Cl)C4)nc32)c1` (stereo not given), the EC50 in [7], in series [8] and in [9] was > 120 µM (not active) each time. Also, in [5], the AC50 was 25.1 µM (inconclusive).

Turning to `COc1cccc(/C=C/C(=C2/C(=O)N(c3ccccc3)N=C2C)c2ccc(Br)cc2)c1OC`, the EC50 in series [11], in series [12] and in series [13] was > 150 µM (not active) in each case. The AC50 in [4] was > 195 µM (inactive).

For the molecule `COC(=O)[C@@]12CCCCN1[C@H](c1ccc(-c3ccc(OC)cc3)cc1)[C@@H]1C(=O)N(C)C(=O)[C@@H]12`, the CC50 in [10] is 17.7 µM (active).

Regarding `Cc1ccc(OCc2nnc(SCC(=O)Nc3cccc4ccccc34)n2-c2ccccc2)cc1`, the EC50 in series [7], in [8] and in series [9] was > 120 µM (not active) each time.

As for `CCOc1ccc(C(Nc2ccc(C)cc2)P2(=O)OCC(C)(C)CO2)cc1` (stereo not given), the AC50 was 39.8 µM (inconclusive) in series [5] and 0.02 µM (inconclusive) in series [14].

In the case of `CCOC(=O)Cc1csc(NC(=O)/C=C/c2ccc(Cl)cc2)n1`, in [10], the CC50 is 4.57 µM (active).

Regarding `CCN(CC)CCOc1ccc2nc(N(C)C)sc2c1`, the AC50 in series [5] and in series [15] was 15.8 µM (inconclusive) each time.

For the molecule `CCNc1ncc2nc(-c3ccc(F)cc3)c(=O)n(CCOC)c2n1`, the figures for the AC50 in series [5] and in series [15] were 2 µM (inconclusive) and 3.98 µM (inconclusive), respectively.

As for `COc1ccccc1-c1cncnc1NCc1cnc(C)cn1`, the AC50 in series [5] was 20 µM (inconclusive); in series [16] (read-out: AC50), 31.6 µM (inconclusive); in series [15] it was 39.8 µM (inconclusive).

Regarding `CCOC(=O)c1c(C)nc2c(c1-c1ccc(OC)cc1)C(=O)CC(C)(C)C2`, the AC50 in series [5] was 14.1 µM (inconclusive).

For the molecule `CC1CCOC2(O1)C(=O)N(CN1CCN(c3ccccc3F)CC1)c1ccccc12` (stereo not given), the values for the AC50 in [5], in [16] (read-out: AC50) and in series [15] were 2 µM (inconclusive), 11.2 µM (inconclusive) and 25.1 µM (inconclusive), respectively.

In the case of `O=C(c1ccco1)N1CCC2(CCN(Cc3ccncc3)CC2)CC1`, the values for the AC50 in series [5] and in series [15] were 20 µM (inconclusive) and 10 µM (inconclusive), respectively.

Consider `COc1ccc(OC)c(C2N(c3cc(C)on3)C(=O)C3CCCN32)c1` (stereo not given), for which the AC50 in [5] was 25.1 µM (inconclusive); in [16], “inconclusive”.

As for `COc1ccc2c(C(=O)NCc3ccc4c(c3)OCO4)c(-c3ccc(S(C)(=O)=O)cc3)sc2c1`, in series [6], the AC50 was 6.76 µM (active).

As for `CC(C)(C)OC(=O)NCc1ccc(NC(=O)c2[nH]cnc2C(=O)NCCCCNC(=O)c2nc[nH]c2C(=O)Nc2ccc(CNC(=O)OC(C)(C)C)cc2)cc1`, the figures for the AC50 in [6] and in [4] were 3.36 µM (active) and 1.73 µM (active), respectively.

With `CN(C)c1ccc(C=C2SC(=S)NC2=O)cc1`, the EC50 in series [17] was 4.78 µM (active).

Take `CCOC(=O)C1=C(COc2ccc(F)cc2Cl)NC(=O)NC1c1cc(C)ccc1C` (stereo not given): in series [5], the AC50 is 17.8 µM (inconclusive).

As for `N[C@H](Cc1ccccc1)c1nnn[nH]1`, the AC50 in [5] is 10 µM (inconclusive).

Turning to `Cc1ccc(S(=O)(=O)c2cc3ccccc3o/c2=N\c2ccc3c(c2)OCO3)cc1`, the AC50 in series [5] is 2.82 µM (inconclusive); in series [15] it was 7.94 µM (inconclusive); in series [14] it was 3.55 µM (inconclusive).

As to `CNc1nc(N/N=C/c2cc3c(cc2[N+](=O)[O-])OCO3)nc(Nc2ccccc2)n1`, in [6], the AC50 is 13.2 µM (active). For the same molecule, the EC50 in series [7] is 9.97 µM (active); in series [8], 9.21 µM (active); in [9], 12.7 µM (active); in series [2] it was > 60 µM (inconclusive); in [3], 2.42 µM (active).

On to `Cc1ccc(S(=O)(=O)N(C)C[C@H]2Oc3ccc(NC(=O)Nc4ccc(C(F)(F)F)cc4)cc3CC(=O)N([C@H](C)CO)C[C@@H]2C)cc1`, for which the AC50 in series [1] is 7.34 µM (active).

In the case of `C[C@@H]1CCCCO[C@@H](CN(C)Cc2ccc(C(F)(F)F)cc2)[C@H](C)CN([C@@H](C)CO)C(=O)c2cc(NS(=O)(=O)c3ccc(Cl)cc3)ccc2O1`, the concentration at half-maximal activity (AC50) in series [1] was 9.89 µM (active).

On to `C(=N\N1CCN(C(c2ccccc2)c2ccccc2)CC1)/c1ccc2c(c1)OCO2`, for which the values for the EC50 in series [7], in series [8] and in series [9] were 0.672 µM (active), > 120 µM (not active) and > 120 µM (not active), respectively.

For `NC1(C(=O)O)CCC1` [1-AMINOCYCLOBUTANE CARBOXYLIC ACID], in [5], the AC50 was 39.8 µM (inconclusive).

Source of the values: ChEMBL document CHEMBL1201862, “PubChem BioAssay data set” (2004).
